From ChEMBL document CHEMBL4507284, “Data for DCP probe BI-1230” (2021) come the findings set out here.

As a reminder, the pKi is the Ki on a negative log10 scale, so that one unit is a factor of ten. As a reminder, the inhibition is the share of the control response that was lost under treatment.

In assay [1] the target is Alpha-2C adrenergic receptor (Homo sapiens, UniProt P18825). Description: GPCRScan assay: inhibition of Alpha2C. Further details: radioligand conc. used [nm] 0.5 – 1.0, parental cells stable MDCK.
Sequence of Alpha-2C adrenergic receptor (P18825 whole entry): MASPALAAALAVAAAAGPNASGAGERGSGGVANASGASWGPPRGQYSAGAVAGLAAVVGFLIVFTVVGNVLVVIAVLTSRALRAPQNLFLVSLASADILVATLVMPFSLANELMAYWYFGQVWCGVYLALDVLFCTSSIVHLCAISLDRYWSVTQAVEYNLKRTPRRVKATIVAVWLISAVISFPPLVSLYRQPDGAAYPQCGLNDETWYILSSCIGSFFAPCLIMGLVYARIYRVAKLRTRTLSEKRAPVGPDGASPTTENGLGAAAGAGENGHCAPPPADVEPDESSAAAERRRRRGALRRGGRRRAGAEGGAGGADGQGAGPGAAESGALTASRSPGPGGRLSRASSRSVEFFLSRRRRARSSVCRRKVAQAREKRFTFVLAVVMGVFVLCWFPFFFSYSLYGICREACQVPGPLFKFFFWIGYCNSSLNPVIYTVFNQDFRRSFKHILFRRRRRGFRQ
For assay [2], the target named is Beta-secretase 1 (Homo sapiens) (UniProt P56817). Briefly: BACE-1 (h) (β-secretase) Eurofins-Cerep enzyme and uptake assay. Conditions: Compound concentration 10.0 uM.
Sequence of Beta-secretase 1 (Homo sapiens) (P56817 whole entry): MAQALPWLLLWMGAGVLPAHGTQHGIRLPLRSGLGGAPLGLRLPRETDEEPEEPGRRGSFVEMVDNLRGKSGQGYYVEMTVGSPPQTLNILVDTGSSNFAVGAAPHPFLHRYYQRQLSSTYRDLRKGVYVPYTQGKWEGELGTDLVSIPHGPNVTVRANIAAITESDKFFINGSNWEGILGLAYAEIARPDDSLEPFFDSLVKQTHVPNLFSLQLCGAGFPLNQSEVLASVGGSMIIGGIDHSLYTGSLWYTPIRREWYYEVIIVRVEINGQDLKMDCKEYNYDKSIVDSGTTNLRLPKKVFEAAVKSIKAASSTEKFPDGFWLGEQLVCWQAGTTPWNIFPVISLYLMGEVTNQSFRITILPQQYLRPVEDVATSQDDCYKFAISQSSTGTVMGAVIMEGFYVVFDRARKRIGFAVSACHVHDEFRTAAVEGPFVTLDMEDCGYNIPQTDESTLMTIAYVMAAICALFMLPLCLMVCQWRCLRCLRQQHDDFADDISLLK
The target in assay [3] is Endothelin-converting enzyme 1 (Homo sapiens) (UniProt P42892). Description: ECE-1 (h) Eurofins-Cerep enzyme and uptake assay. As to conditions: Compound concentration 10.0 uM.
Sequence of Endothelin-converting enzyme 1 (Homo sapiens) (P42892 whole entry): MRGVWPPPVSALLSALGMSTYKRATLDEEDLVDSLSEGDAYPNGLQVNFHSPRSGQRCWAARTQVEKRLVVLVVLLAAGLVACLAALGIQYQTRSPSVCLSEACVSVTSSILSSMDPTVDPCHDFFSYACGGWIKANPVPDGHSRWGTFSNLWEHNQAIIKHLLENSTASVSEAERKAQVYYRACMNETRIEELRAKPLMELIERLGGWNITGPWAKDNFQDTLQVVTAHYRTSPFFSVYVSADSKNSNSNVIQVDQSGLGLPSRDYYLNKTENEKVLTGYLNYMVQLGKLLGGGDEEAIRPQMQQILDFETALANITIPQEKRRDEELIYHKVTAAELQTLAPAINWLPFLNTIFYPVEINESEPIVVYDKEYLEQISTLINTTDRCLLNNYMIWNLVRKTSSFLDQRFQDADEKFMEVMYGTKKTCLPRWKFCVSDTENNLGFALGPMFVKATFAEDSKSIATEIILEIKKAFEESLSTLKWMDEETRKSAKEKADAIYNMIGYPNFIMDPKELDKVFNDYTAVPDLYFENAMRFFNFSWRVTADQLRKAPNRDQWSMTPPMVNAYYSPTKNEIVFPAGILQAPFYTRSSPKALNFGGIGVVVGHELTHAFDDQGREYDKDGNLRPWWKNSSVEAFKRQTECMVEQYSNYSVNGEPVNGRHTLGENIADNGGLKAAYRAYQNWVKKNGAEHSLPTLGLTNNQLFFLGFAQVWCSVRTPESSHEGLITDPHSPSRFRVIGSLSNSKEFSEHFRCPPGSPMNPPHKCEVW
Assay [4] concerns the target Cathepsin E (Homo sapiens) (UniProt P14091). Description: Cathepsin E Eurofins-Cerep enzyme and uptake assay. Conditions: Mus musculus; Compound concentration 10.0 uM.
Assay [5] addresses Cathepsin S (Homo sapiens) (UniProt P25774). Briefly: Cathepsin S (h) Eurofins-Cerep enzyme and uptake assay. As to conditions: Compound concentration 10.0 uM.
Assay [6] concerns the target Neutrophil collagenase (Homo sapiens) (UniProt P22894). Description: MMP-8 (h) Eurofins-Cerep enzyme and uptake assay. Conditions: Compound concentration 10.0 uM.
The target in assay [7] is Matrix metalloproteinase-9 (Homo sapiens) (UniProt P14780). Description: MMP-9 (h) Eurofins-Cerep enzyme and uptake assay. As to conditions: Compound concentration 10.0 uM.
Sequence of Matrix metalloproteinase-9 (Homo sapiens) (P14780 whole entry): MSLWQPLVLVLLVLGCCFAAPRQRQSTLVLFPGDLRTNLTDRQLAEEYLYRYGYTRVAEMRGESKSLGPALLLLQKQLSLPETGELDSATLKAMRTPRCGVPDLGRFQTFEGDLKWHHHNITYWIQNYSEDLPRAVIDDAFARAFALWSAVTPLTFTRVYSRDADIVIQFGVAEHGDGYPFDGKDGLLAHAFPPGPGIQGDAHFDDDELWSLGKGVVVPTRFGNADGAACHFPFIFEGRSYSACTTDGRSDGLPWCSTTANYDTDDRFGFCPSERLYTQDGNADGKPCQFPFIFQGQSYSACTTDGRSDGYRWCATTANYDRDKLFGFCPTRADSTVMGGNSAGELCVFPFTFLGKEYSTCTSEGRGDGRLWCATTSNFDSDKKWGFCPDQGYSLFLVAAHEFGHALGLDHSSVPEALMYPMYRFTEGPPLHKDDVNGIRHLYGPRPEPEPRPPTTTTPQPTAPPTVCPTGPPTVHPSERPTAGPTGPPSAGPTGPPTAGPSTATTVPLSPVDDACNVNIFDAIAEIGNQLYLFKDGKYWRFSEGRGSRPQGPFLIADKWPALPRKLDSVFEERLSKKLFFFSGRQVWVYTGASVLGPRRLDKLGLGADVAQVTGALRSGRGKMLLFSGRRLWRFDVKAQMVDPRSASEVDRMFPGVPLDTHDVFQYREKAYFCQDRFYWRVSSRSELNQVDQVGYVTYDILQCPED
The target in another assay is Trypsin (Homo sapiens) (UniProt P07477+P07478+P35030). Description: Trypsin (h) Eurofins-Cerep enzyme and uptake assay. In kind it is protein assay. As to conditions: Compound concentration 10.0 uM.
Assay [8] addresses Kappa-type opioid receptor (Homo sapiens) (UniProt P41145). As to conditions: Compound concentration 10.0 uM.
The target of assay [9] is Alpha-1D adrenergic receptor (Homo sapiens) (UniProt P25100). Conditions: Compound concentration 10.0 uM.
Sequence of Alpha-1D adrenergic receptor (Homo sapiens) (P25100 whole entry): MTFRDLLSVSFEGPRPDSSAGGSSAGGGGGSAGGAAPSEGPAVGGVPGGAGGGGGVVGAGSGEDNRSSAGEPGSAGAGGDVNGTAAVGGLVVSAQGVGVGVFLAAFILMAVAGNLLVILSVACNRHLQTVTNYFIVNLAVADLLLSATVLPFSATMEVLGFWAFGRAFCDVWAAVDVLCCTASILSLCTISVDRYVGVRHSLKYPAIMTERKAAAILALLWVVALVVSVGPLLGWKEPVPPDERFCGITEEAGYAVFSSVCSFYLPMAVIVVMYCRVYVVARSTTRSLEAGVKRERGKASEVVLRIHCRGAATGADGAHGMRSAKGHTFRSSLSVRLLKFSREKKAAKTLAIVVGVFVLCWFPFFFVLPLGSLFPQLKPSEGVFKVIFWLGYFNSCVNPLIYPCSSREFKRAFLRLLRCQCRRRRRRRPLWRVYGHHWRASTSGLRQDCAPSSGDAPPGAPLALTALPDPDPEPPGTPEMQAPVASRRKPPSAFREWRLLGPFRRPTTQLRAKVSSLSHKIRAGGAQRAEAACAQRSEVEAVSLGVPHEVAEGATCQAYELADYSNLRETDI
The target of assay [10] is GABA-A receptor; anion channel (Rattus norvegicus) (UniProt O09028+P15431+P18506+P18508+P19969+P20236+P23574+P23576+P28471+P28473+P30191+P62813+P63079+P63138+Q91ZM7+Q9ES14). Conditions: Compound concentration 10.0 uM.

SMILES strings stand for the structures. pKi: −log10 of the molar value.

Sequence of Cathepsin S (Homo sapiens) (P25774 115-331 limits assumed): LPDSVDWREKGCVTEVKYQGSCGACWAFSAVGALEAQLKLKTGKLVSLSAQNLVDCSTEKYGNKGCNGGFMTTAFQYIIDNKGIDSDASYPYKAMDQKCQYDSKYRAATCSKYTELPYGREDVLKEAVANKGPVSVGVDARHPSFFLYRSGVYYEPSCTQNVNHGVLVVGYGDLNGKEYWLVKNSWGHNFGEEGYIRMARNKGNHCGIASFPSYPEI
Sequence of Cathepsin E (Homo sapiens) (P14091 whole entry): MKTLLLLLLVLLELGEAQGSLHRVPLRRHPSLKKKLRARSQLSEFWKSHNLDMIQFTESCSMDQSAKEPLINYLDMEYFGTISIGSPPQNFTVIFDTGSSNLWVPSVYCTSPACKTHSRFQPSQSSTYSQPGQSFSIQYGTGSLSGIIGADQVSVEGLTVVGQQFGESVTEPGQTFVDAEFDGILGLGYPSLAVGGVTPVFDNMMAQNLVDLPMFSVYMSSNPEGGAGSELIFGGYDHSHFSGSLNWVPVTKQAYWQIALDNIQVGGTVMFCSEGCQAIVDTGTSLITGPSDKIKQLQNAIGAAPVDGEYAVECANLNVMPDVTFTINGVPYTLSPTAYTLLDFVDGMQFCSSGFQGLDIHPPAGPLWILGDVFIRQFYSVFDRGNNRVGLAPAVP
Sequence of Kappa-type opioid receptor (Homo sapiens) (P41145 whole entry): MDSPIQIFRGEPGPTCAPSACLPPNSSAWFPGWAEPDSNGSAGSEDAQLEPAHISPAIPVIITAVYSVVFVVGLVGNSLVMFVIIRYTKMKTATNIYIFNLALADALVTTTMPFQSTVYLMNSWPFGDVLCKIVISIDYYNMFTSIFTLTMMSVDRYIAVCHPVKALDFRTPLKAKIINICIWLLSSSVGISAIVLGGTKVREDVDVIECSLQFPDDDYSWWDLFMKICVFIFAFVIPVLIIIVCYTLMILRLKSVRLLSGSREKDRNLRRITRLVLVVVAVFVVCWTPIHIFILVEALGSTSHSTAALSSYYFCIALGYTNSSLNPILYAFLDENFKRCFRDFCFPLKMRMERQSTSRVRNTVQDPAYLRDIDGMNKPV
Sequence of Neutrophil collagenase (Homo sapiens) (P22894 101-467 limits assumed): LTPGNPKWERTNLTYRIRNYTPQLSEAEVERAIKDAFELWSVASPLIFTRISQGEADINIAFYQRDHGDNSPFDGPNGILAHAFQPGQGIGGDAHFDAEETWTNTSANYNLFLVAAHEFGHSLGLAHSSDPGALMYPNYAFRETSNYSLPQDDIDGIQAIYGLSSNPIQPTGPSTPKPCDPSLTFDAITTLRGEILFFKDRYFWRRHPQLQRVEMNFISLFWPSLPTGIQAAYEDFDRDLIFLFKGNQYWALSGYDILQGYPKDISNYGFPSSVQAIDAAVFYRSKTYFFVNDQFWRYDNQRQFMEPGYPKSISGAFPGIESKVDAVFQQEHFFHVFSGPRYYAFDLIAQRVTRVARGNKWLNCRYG

Regarding `COc1ccc2c(O[C@@H]3C[C@H]4C(=O)N[C@]5(C(=O)O)CC5/C=C\CCCCC[C@H](NC(=O)OC5CCCC5)C(=O)N4C3)cc(-c3csc(NC(=O)C(C)C)n3)nc2c1C` (some centres not stated) [BI 1230], in [1] (read-out: Ki), the pKi is 5.48. For the same molecule, the Ki in assay [1] (read-out: pKi (converted)) is 3.24 µM. For the same molecule, the % Inhibition of Control Values in [2] was 90.6%; in assay [3], 14.3%; in assay [4] it was -16.8%; in assay [5] it was 27%; in assay [6] it was 125%; in assay [7], 16.1%. In addition, the % Inhibition of Control Values on Trypsin (Homo sapiens) turned out to be 29.8%. Besides, the inhibition in assay [8] is 18.1%; in assay [9] it was 20.5%.

Turning to `O=C(N[C@H]1CCCCC/C=C\C2C[C@@]2(C(=O)O)NC(=O)[C@@H]2C[C@@H](Oc3ccncc3)CN2C1=O)OC1CCCC1` (some centres not stated) [BI 1675], the inhibition in assay [10] was 8.04%.
